Experimental data from patent publication US12281121B2, “N-containing heteroaryl derivative and pharmaceutical composition comprising same as active ingredient for prevention or treatment of cancer” (VORONOI Inc., priority 2019, dated 2025).

How the values were obtained:
Ba/F3 (naive) cells = test: Cell proliferation inhibition, CellTiter-Glo; type: cell-based; conditions: Mus musculus, BaF3; Ba/F3 not transduced, 72 hours
Experimental: (§1) Among lung cancer cell lines, which express RET fusion genes, LC-2/ad cells were cultured after adding 10% FBS (HyClone) to RPMI:F12 (1:1) (Invitrogen), and F-12 (Invitrogen) supplemented with 10% FBS was used for TT cells. RPMI-1640 supplemented with 10% FBS and 5 ng/ml IL-3 (R&D Systems) was used for Ba/F3 cells. Transduced Ba/F3 cells were cultured by adding 1 ug/ml puromycin (Invitrogen) to the same medium. 24 hours before cells were treated with the compound, 3000 to 5000 cells were aliquoted into each well of a white clear bottom 96 well plate (Corning). The compound was diluted in DMSO (3-fold dilution, a total of 12 concentrations) and the compound was injected by 0.5 μl such that the final concentration was 0.3 nM to 50 μM. For the measurement of living cells, 72 hours after the compound treatment, the cells were stored at room temperature for 10 minutes using a CellTiter-Glo luminescent cell-viability agent (Promega), and then the luminescence intensity was measured using a reader (SynergyNeo, Biotek). Each experiment was repeated in triplicate. The result value was calculated by the cell growth ratio (%) compared to the control. A graph was drawn using the GraphPad Prism version 5.0 program, and a GI50 (nM) value was calculated.
(§2) In the cell assay column, LC-2/ad (with CCDC6-RET gene) is a lung cancer cell line, a TT cell line ([…]) is a thyroid cancer cell line, Ba/F3 CCDC6-RET (WT), Ba/F3 KIF5B-RET (WT), and Ba/F3 KIF5B-RET (V804M) are cells in which disease-related traits (CCDC6-RET, KIF5B-RET, and KIF5B-RET (V804M)) are introduced into Ba/F3 cells, and Ba/F3 (naive) is a cell which is not transduced.

[1] = test system: Ba/F3 KIF5B-RET (WT) cells; test: Cell proliferation inhibition, CellTiter-Glo; type: cell-based; conditions: Mus musculus, BaF3, 72 hours
Experimental: as §1, §2

[2] = test system: Ba/F3 KIF5B-RET (V804M) cells; test: Cell proliferation inhibition, CellTiter-Glo; type: cell-based; conditions: Mus musculus, BaF3, 72 hours
Experimental: as §1, §2

[3] = test system: Ba/F3 CCDC6-RET (WT) cells; test: Cell proliferation inhibition, CellTiter-Glo; type: cell-based; conditions: BaF3/CCDC6-RET, 72 hours
Experimental: as §1, §2

TT cells = test: Cell proliferation inhibition, CellTiter-Glo; type: cell-based; conditions: Homo sapiens; TT thyroid cancer cell line, 72 hours
Experimental: as §1, §2

RET (WT) = target: T1, RET (WT) (Homo sapiens, UniProt P07949); test: RET enzyme inhibitory ability, ADP-Glo kinase assay; type: biochemical; conditions: ATP 10 μM, 25° C., 1 hour
T1 construct: human RET (658-end, SIGNALCHEM); purchased SIGNALCHEM
T1 sequence (P07949 658-1114 limits assumed): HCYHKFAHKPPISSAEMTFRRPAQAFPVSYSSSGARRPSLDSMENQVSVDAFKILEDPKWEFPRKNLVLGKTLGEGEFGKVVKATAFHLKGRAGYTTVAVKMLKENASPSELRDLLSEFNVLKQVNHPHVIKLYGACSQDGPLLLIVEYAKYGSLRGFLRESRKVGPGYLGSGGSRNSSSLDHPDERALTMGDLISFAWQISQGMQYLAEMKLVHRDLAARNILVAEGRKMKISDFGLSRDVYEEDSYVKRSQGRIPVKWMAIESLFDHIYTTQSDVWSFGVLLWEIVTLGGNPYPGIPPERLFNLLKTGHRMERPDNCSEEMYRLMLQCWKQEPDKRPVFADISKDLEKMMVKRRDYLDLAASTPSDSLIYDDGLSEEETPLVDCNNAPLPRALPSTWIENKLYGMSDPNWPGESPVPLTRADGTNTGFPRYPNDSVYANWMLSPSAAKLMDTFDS
Experimental: The Example compound was reacted with a purified human RET (658-end, SIGNALCHEM) enzyme to evaluate the enzyme inhibitory ability by the following method. As a reaction buffer, a composition of 40 mM Tris-HCl pH 7.4, 20 mM MgCl2, 0.5 mg/mL BSA, and 50 μM DTT was used, and all experimental materials were reacted on the reaction buffer. After the human RET (658-end, 0.8 ng) enzyme was reacted with purified ATP (10 μM) and a specific substrate solution at 25° C. for 1 hour during the experiment, the enzyme activity was confirmed using in vitro ADP-Glo™ kinase assay (Promega). Luminescence was measured by reacting the enzyme activity reaction solution, the ADP-Glo reaction solution, and the enzyme activity detection solution at a ratio of 2:2:1. The degree of inhibition of enzyme activity according to the treatment concentration of each compound was calculated based on the […] of the enzyme activity of a solvent control group in which a compound was not treated, and in this case, the concentration of each compound which suppresses the […] enzyme activity by 50% was determined as an IC50 (nM) value. The IC50 (nM) of each compound was determined by 3 datasets and obtained using Prism (version 7.01, GraphPad) software.
In the enzyme assay column, RET (WT) is a non-mutated form, RET (V804M) is a mutated form in which the V amino acid at position 804 of the RET is substituted with M, and CCDC6-RET is a form in which the RET (WT) gene and CCDC6 gene are fused.

SMILES	GI50 (Ba/F3 (naive) cells) [nM]	GI50 [1] [nM]	GI50 [2] [nM]	GI50 [3] [nM]	GI50 (TT cells) [nM]	IC50 (RET (WT)) [nM]
COc1ccc(CN2C3CC2CN(c2ccc(-c4nc(Nc5cc(C)[nH]n5)c5sccc5n4)cn2)C3)cn1 [Example 2, 2-(6-(6-((6-methoxypyridin-3-yl)methyl)-3,6-diazabicyclo [3.1.1]heptan-3-yl)pyridin-3-yl)-N-(5-methyl-1H-pyrazol-3-yl)thieno[3,2-d]pyrimidin-4-amine]	4380	11	14	49	48	12
COc1ccc(CN2C3CC2CN(c2ccc(-c4nc(Nc5cc(C(F)(F)F)[nH]n5)c5occc5n4)cn2)C3)cn1 [Example 4, 2-(6-(6-((6-methoxypyridin-3-yl)methyl)-3,6-diazabicyclo [3.1.1]heptan-3-yl)pyridin-3-yl)-N-(5-(trifluoromethyl)-1H-pyrazol-3-yl)furo[3,2-d]pyrimidin-4-amine]	> 15000		> 15000		> 15000	> 15000
COc1ccc(CN2C3CC2CN(c2ccc(-c4nc5c(c(Nc6cc(C)[nH]n6)n4)CCC5)cn2)C3)cn1 [Example 7, 2-(6-(6-((6-methoxypyridin-3-yl)methyl)-3,6-diazabicyclo [3.1.1]heptan-3-yl)pyridin-3-yl)-N-(5-methyl-1H-pyrazol-3-yl)-6,7-dihydro-5H-cyclopenta[d]py-rimidin-4-amine]	6070	15	7	45	41	10
